Values joined by “and” are separate entries in the source; they are usually repeats but may differ in a detail not shown here. Equal values may be shown once.
System: C. elegans
Assay: Fat-reducing effect on C. elegans (Nile red lipid staining, fluorescence)
Format: in vivo
Settings: for Fat Reduction (%) vs. Control: vs NG medium; for effectiveness in reducing the lipid level relative to Orlistat as reference: specific concentrations, summary statement
Procedure: Plates with a diameter of 100×15 mm have been filled with NGM (Nematode Growth Medium, as standard, hereafter NG medium (Fisher Scientific). Nile red (Sigma, St. Louis, MO, USA) was added to the solid surface of the NGM plates seeded at a final concentration of 0.05 μg/mL
For each of the experiments 2 NG medium plates were used, which had been supplemented with 2′-fucosyllactose in different amounts each, i.e. […] As negative control two plates with NG medium were used. As positive control two NG medium plates with Orlistat® were used.
60 synchronized worms at young adult stage were added to each plate with Escherichia coli strain OP50 as a food source and cultured under aerobic conditions at 20° C.
All worms were subjected to a lipid staining method, following the protocol previously described (Martorell et al., 2016).
All nematodes from each plate were transferred to M9 buffer and the fluorescence was measured using a FP-8300 system (JASCO Analytical Instrument, Easton, MD, USA). Fat deposition in worms was determined by one-way ANOVA test, using a Tukey's multiple comparison post-test.
Results are given as the mean±standard deviation. The statistical analyses were performed with GraphPad Prism 9 software. Statistical significance is indicated at 5%. […]

| Compound | Fat Reduction (%) vs. Control (0.01 mg/L in NG medium) [%] | Fat Reduction (%) vs. Control (0.1 mg/L in NG medium) [%] | Fat Reduction (%) vs. Control (1 mg/L in NG medium) [%] | fat reduction compared to negative control conditions (NG medium) (1 mg/mL) [%] | effectiveness relative to the positive control orlistat (1 mg/ml) | Fat Reduction (%) vs. Control (10 mg/L in NG medium) [%] | fat reduction compared to negative control conditions (NG medium) (10 mg/mL) [%] | effectiveness relative to the positive control orlistat (10 mg/ml) | Fat Reduction (%) vs. Control (30 mg/L in NG medium) [%] | effectiveness in reducing the lipid level relative to Orlistat as reference | effect on fat content in nematodes (the lower and higher doses) | Fat Reduction (%) vs. Control (6 μg/mL in NG medium, positive control) | Fat Reduction (%) vs. Control (6 μg/mL in NG medium, positive control, listed as Orlistate) [%] | Fat Reduction (%) vs. Control (6 μg/mL in NG medium, positive control, listed as orlistat) [%] |
| --- | --- | --- | --- | --- | --- | --- | --- | --- | --- | --- | --- | --- | --- | --- |
| 2′-fucosyllactose [2′-FL] | −2.38 | 11.37 | 23.61 | 23.6 | about 78% | 25.35 | 25.3 | ~83% | 5.28 | 70-90% | no functional effect |  |  |  |
| CC(=O)N[C@H]1[C@H](O[C@H]2[C@@H](O)[C@@H](CO)O[C@@H](O[C@H]3[C@H](O)[C@@H](O)C(O)O[C@@H]3CO)[C@@H]2O)O[C@H](CO)[C@@H](O[C@@H]2O[C@H](CO)[C@H](O)[C@H](O)[C@H]2O)[C@@H]1O (mixture of isomers) [LNnT, Lacto-N-neotetraose] | −5.01 | −0.08 | 3.08 |  |  | 14.05 | 14.05 | about 45% | −2.39 | 40-60% |  |  |  |  |
| CCCCCCCCCCC[C@@H](C[C@@H]1OC(=O)[C@H]1CCCCCC)OC(=O)[C@H](CC(C)C)NC=O [Orlistat, (25)-2-Formylamino-4-methylpentansäure-(1S)-1-{[(35,4S)-3-hexyl-2-oxo-4-oxetanyl]methyl}dodecylester, reference compound] |  |  |  |  |  |  |  |  |  |  |  | 31.14% and 30.40% | 31.14 | 30.4 |

Source: patent US20250127803A1, “2'-FUCOSYLLACTOSE AND LACTO-N-NEOTETRAOSE FOR PREVENTING AND TREATING OVERWEIGHT” (HEALTH AND HAPPINESS (H&H) HONG KONG LTD, priority 2022, published 2025)
